Assay results as given in patent US20230203081A1, “LINCOSAMIDE ANTIBIOTICS AND USES THEREOF” (President and Fellows of Harvard College, priority 2020, published 2023).
Converted amounts (≈) assume the structure as drawn. Where two headings read alike, the source gives them in different places.

Tests used:
Format in all cases: cell-based
K. oxytoca Clinical = experiment: MIC (broth microdilution or agar dilution, CLSI); conditions: Klebsiella oxytoca, read-out: MIC
Method: (§1) Minimum inhibitory concentrations (MICs) were determined by broth microdilution method or agar dilution method following the Clinical and Laboratory Standards Institute guidelines. Standard bacterial strains were obtained from American Type Culture Collection (ATCC). Other bacterial strains were obtained from hospitals and commercial sources, so noted in Table 11. […] Specialized procedures were employed for streptococcal and anaerobic strains. All other bacterial strains were sub-cultured on blood agar plates (tryptic soy agar with 5% sheep blood, Hardy Diagnostics) and incubated overnight at 35° C. […] Suspensions were further diluted to obtain a final inoculum of 5×10^5 CFU/mL for broth microdilution experiments.

S. aureus ATCC 29213 = experiment: MIC (broth microdilution or agar dilution, CLSI); conditions: Staphylococcus aureus, read-out: MIC
Method: as §1

E. coli LptD = experiment: MIC (broth microdilution or agar dilution, CLSI); conditions: Escherichia coli, read-out: MIC
Method: as §1

E. faecalis ATCC 29212 = experiment: MIC (broth microdilution or agar dilution, CLSI); conditions: Enterococcus faecalis, read-out: MIC
Method: as §1

S. pyogenes ATCC 19615 = experiment: MIC (broth microdilution or agar dilution, CLSI); conditions: Streptococcus pyogenes, read-out: MIC
Method: as §1

E. coli ATCC 25922 = experiment: MIC (broth microdilution or agar dilution, CLSI); conditions: Escherichia coli, ATCC25922, read-out: MIC
Method: as §1

S. pneumoniae ATCC 49619 = experiment: MIC (broth microdilution or agar dilution, CLSI); conditions: Streptococcus pneumoniae, read-out: MIC
Method: as §1

S. aureus MMX 3035 cErmA = experiment: MIC (broth microdilution or agar dilution, CLSI); conditions: Staphylococcus aureus, MMX3035CERMA; S. aureus HAV#031, MMX 3035; cErmA; read-out: MIC
Method: as §1

E. coli ΔTolC = experiment: microbe, parasite or virus in culture; conditions: Escherichia coli
Method: as §1

[1] = test system: broad panel of different clinical isolates; experiment: microbe, parasite or virus in culture
Method: as §1

E. faecium Clinical VRE = experiment: MIC (broth microdilution or agar dilution, CLSI); conditions: Enterococcus faecium; E. faecium Clinical VRE; read-out: MIC
Method: (§2) Minimum inhibitory concentrations (MICs) were determined by broth microdilution method or agar dilution method following the Clinical and Laboratory Standards Institute guidelines. Standard bacterial strains were obtained from American Type Culture Collection (ATCC). Other bacterial strains were obtained from hospitals and commercial sources, so noted in Table 11. Before the start of the MIC experiment, standard and test compound stock solutions were prepared in dimethyl sulfoxide (DMSO, Aldrich D2650) at a stock concentration of 5,120 μg/mL. The compound concentration range typically employed for each experiment was 128-0.06 μg/mL (2.5% final DMSO concentration). Clindamycin was used as a comparator in all experiments and each experiment was performed in triplicate. Specialized procedures were employed for streptococcal and anaerobic strains. All other bacterial strains were sub-cultured on blood agar plates (tryptic soy agar with 5% sheep blood, Hardy Diagnostics) and incubated overnight at 35° C. Organisms were suspended in cation-adjusted Mueller-Hinton broth (CaMHB, BD 212322) and optical density was adjusted to 0.5 McFarland standard. Suspensions were further diluted to obtain a final inoculum of 5×10^5 CFU/mL for broth microdilution experiments.

S. aureus cErmA = experiment: MIC (broth microdilution or agar dilution, CLSI); conditions: Staphylococcus aureus; S. aureus cErmA; read-out: MIC
Method: as §2

[2] = test system: S. aureus ATCC BAA-1707 (MRSA); experiment: MIC (broth microdilution or agar dilution, CLSI); conditions: Staphylococcus aureus; S. aureus HAV#016, ATCC BAA-1707; MRSA; read-out: MIC
Method: as §1

S. aureus BAA 977 iErmA = experiment: microbe, parasite or virus in culture; conditions: Staphylococcus aureus, BAA-977 / MRSA
Method: as §1

[3] = ATCC29213, S. aureus HAV#001, ATCC 29213, MP-549
[4] = ATCC29212, E. faecalis HAV#005, ATCC 29212
[5] = ATCC19615, S. pyogenes HAV#004, ATCC 19615
[6] = ATCC49619, S. pneumoniae HAV#003, ATCC 49619
[7] = Enterococcus faecalis, VRE, E. faecalis HAV#251, Clinical VRE
[8] = Klebsiella pneumoniae, K. pneumoniae HAV#041, Clinical, KPC
[9] = ATCC29213, S. aureus ATCC 29213
[10] = ATCC29212, E. faecalis ATCC 29212
[11] = ATCC19615, S. pyogenes ATCC 19615
[12] = ATCC49619, S. pneumoniae ATCC 49619
[13] = Enterococcus faecium, VRE, E. faecium HAV#326, Clinical

Structure (SMILES)	MIC (K. oxytoca Clinical; K. oxytoca HAV#450, Clinical) [µg/mL]	MIC (S. aureus ATCC 29213; [3]) [µg/mL]	MIC (E. coli LptD; E. coli HAV#040, LptD) [µg/mL]	MIC (E. faecalis ATCC 29212; [4]) [µg/mL]	MIC (S. pyogenes ATCC 19615; [5]) [µg/mL]	MIC (E. coli ATCC 25922; E. coli HAV#006, ATCC 25922) [µg/mL]	MIC (S. pneumoniae ATCC 49619; [6]) [µg/mL]	MIC (E. coli ΔTolC; E. coli HAV#038, ΔTolC) [µg/mL]	MIC (K. oxytoca Clinical; K. oxytoca Clinical) [µg/mL]	MIC (S. aureus ATCC 29213; [9]) [µg/mL]	MIC (E. coli LptD; E. coli LptD) [µg/mL]	MIC (E. faecalis ATCC 29212; [10]) [µg/mL]	MIC (S. pyogenes ATCC 19615; [11]) [µg/mL]	MIC (E. coli ATCC 25922; E. coli ATCC 25922) [µg/mL]	MIC (S. pneumoniae ATCC 49619; [12]) [µg/mL]	MIC (E. coli ΔTolC; E. coli ΔTolC) [µg/mL]	MIC (E. faecium Clinical VRE) [µg/mL]	MIC (S. aureus cErmA) [µg/mL]	also measured
O=C(N[C@H](CO)[C@H](O)c1ccc([N+](=O)[O-])cc1)C(Cl)Cl [Chloramphenicol]	8 (≈ 24.8 µM)	8 (≈ 24.8 µM)	4 (≈ 12.4 µM)	8 (≈ 24.8 µM)	4 (≈ 12.4 µM)	8 (≈ 24.8 µM)	4 (≈ 12.4 µM)	8 (≈ 24.8 µM)											MIC (S. aureus MMX 3035 cErmA): 16 µg/mL (≈ 49.5 µM); MIC [1, 7]: 4 µg/mL (≈ 12.4 µM); MIC ([1]; Enterococcus faecium, VRE, E. faecium HAV#318, VanA): 8 µg/mL (≈ 24.8 µM); MIC [1, 8]: > 128 µg/mL; MIC ([1]; Staphylococcus aureus, S. aureus HAV#216, Clinical, cfr): > 128 µg/mL; MIC ([1]; Staphylococcus aureus, S. aureus HAV#217, cfr): > 128 µg/mL; MIC ([1]; Staphylococcus epidermidis, S. epidermidis HAV# 275 Clinical, cfr): > 128 µg/mL; MIC ([1]; Staphylococcus epidermidis, S. epidermidis HAV# 276, cfr): > 128 µg/mL
CSC1O[C@H]([C@H](NC(=O)[C@H]2NC[C@@H]3C[C@H](CCCF)CCO[C@H]32)[C@H](C)Cl)C(O)C(O)[C@H]1O (stereo partly drawn) [FSA-12-03-035]									4 (≈ 8.02 µM)	0.125 (≈ 0.25 µM)	4 (≈ 8.02 µM)	0.25 (≈ 0.501 µM)	0.06 (≈ 0.12 µM)	8 (≈ 16 µM)	0.06 (≈ 0.12 µM)	4 (≈ 8.02 µM)	4 (≈ 8.02 µM)	8 (≈ 16 µM)	
CSC1O[C@H]([C@H](NC(=O)[C@H]2NC[C@@H]3C[C@H](CCCCl)CCO[C@H]32)[C@H](C)Cl)C(O)C(O)[C@H]1O (stereo partly drawn) [FSA-12-03-042]									8 (≈ 15.5 µM)	0.125 (≈ 0.242 µM)	2 (≈ 3.88 µM)	0.125 (≈ 0.242 µM)	0.06 (≈ 0.116 µM)	8 (≈ 15.5 µM)	0.06 (≈ 0.116 µM)	0.5 (≈ 0.97 µM)	4 (≈ 7.76 µM)	16 (≈ 31 µM)	
CSC1O[C@H]([C@H](NC(=O)[C@H]2NC[C@@H]3C[C@H](CCC(F)F)CCO[C@H]32)[C@H](C)Cl)C(O)C(O)[C@H]1O (stereo partly drawn) [FSA-12-03-055]									16 (≈ 30.9 µM)	0.125 (≈ 0.242 µM)	4 (≈ 7.74 µM)	0.25 (≈ 0.484 µM)	0.06 (≈ 0.116 µM)	16 (≈ 30.9 µM)	0.06 (≈ 0.116 µM)	1 (≈ 1.93 µM)	8 (≈ 15.5 µM)	16 (≈ 30.9 µM)	
CCC[C@@H]1C[C@@H](C(=O)N[C@@H]([C@H]2O[C@H](SC)[C@H](O)[C@@H](O)[C@H]2O)[C@@H](C)O)N(C)C1 [Lincomycin]	> 256	0.5 (≈ 1.23 µM)	64 (≈ 157 µM)	32 (≈ 78.7 µM)	0.5 (≈ 1.23 µM)	> 256	1 (≈ 2.46 µM)	128 (≈ 315 µM)											MIC [2]: 0.25 µg/mL (≈ 0.615 µM); MIC [1, 13]: 16 µg/mL (≈ 39.4 µM)
CN(C)c1ccc(O)c2c1C[C@H]1C[C@H]3[C@H](N(C)C)C(O)=C(C(N)=O)C(=O)[C@@]3(O)C(O)=C1C2=O [Minocycline]		0.25 (≈ 0.546 µM)	0.25 (≈ 0.546 µM)	4 (≈ 8.74 µM)		0.5 (≈ 1.09 µM)		≤ 0.0125											MIC [2]: 0.25 µg/mL (≈ 0.546 µM); MIC (S. aureus BAA 977 iErmA): 0.25 µg/mL (≈ 0.546 µM); MIC [1, 13]: 0.125 µg/mL (≈ 0.273 µM)
CS(=O)(=O)c1ccc([C@@H](O)[C@@H](CO)NC(=O)C(Cl)Cl)cc1 [Thiamphenicol]	64 (≈ 180 µM)	32 (≈ 89.8 µM)	32 (≈ 89.8 µM)	16 (≈ 44.9 µM)	4 (≈ 11.2 µM)	64 (≈ 180 µM)	2 (≈ 5.61 µM)	16 (≈ 44.9 µM)											MIC (S. aureus MMX 3035 cErmA): 32 µg/mL (≈ 89.8 µM); MIC [1, 7]: 8 µg/mL (≈ 22.5 µM); MIC [1, 8]: > 64 µg/mL
